Assay results reported in publication PMC10361207, “Cannabinoid and Opioid Receptor Affinity and Modulation of Cancer-Related Signaling Pathways of Machaeriols and Machaeridiols from Machaerium Pers” (Molecules, 2023).
In brackets after ≈: the same amount, converted by molar mass.

How the values were obtained:
Assay type in all cases: cell-based
[1] = test system: ETS; experiment: Luciferase reporter assay, ETS, T98G; conditions: Homo sapiens; T98G cells; inducer PMA
Procedure: (§1) Hela cells (or T98G cells) from ATCC were plated in white opaque 384-well plates at a density of 4300 cells/well in 30 µL of growth medium (DMEM with 10% FBS and 1% Pen/Strep). The next day, the medium was aspirated and replaced with DMEM containing 1% FBS. The cells were transfected with respective plasmids using X-tremeGENE HP DNA transfection reagent (Roche). After 24 h of transfection, the test agents were added to the transfected cells, followed 30 min later by an inducing agent: interleukin 6 (IL-6) for Stat3, TGF-β for Smad, m-wnt3a for Wnt and PMA for AP-1, NF-κB, E2F, Myc, ETS, Notch and Hedgehog. No inducer was added for FoXO and pTK. After 4 h or 6 h of induction, the cells were lysed via the addition of the One-Glo luciferase assay system (Promega; Madison, WI). The light output was detected in a GloMax®-Multi+ Detection System with Instinct® Software (Promega E 8051). This luciferase assay determines if the test agent is able to inhibit the activation of cancer-related signaling pathways. In the case of FoxO, the enhanced luciferase activity via the test agent was assessed.

[2] = Cytotoxicity, Neutral Red, HeLa; conditions: human, HeLa cervical cancer cells, Na = not active up to 50 µg/mL
Procedure: In vitro cytotoxic activity was determined against five human cancer cell lines—malignant melanoma (SK-MEL), epidermal carcinoma oral (KB), ductal carcinoma breast (BT-549), ovary carcinoma (SKOV-3) and cervical (HeLa) cancer cells—and two non-cancerous kidney cell lines (LLC-PK1 and Vero). All cell lines were obtained from the American Type Culture Collection (ATCC, Rockville, MD, USA). Each assay was performed in 96-well tissue culture-treated microplates. The cells were seeded at a density of 25,000 cells/well and incubated for 24 h. Samples at different concentrations were added, and the cells were incubated again for 48 h. At the end of the incubation, the cell viability was determined using Neutral Red dye according to a modification of the procedure used by Borenfreund et al.. IC50 values were determined from dose–response curves of the percent growth inhibition against test concentrations. Doxorubicin was used as a positive control, while DMSO was used as the negative (vehicle) control.

[3] = test system: AP-1; experiment: Luciferase reporter assay, AP-1, T98G; conditions: T98G cells; inducer PMA
Procedure: as §1

Q: With `C=C(C)[C@H]1CC[C@H](C)C[C@@H]1c1c(O)cc(/C=C/c2ccccc2O)cc1O` [compound 6, machaeridiol B] as the compound, how does the IC50 [1] read?
A: 5.9 µM

Q: What about the IC50 at 48 h [2] of the same compound?
A: 37 µg/mL (≈ 102 µM)

Q: What about the IC50 [3] of the same compound?
A: 4.2 µM
